Experimental data published in patent publication US20100048575A1, “NOVEL TETRACYCLIC INHIBITORS OF CYSTEINE PROTEASES, THE PHARMACEUTICAL COMPOSITIONS THEREOF AND THEIR THERAPEUTIC APPLICATIONS” (priority 2006, published 2010).

Legend:
[1] = target: T1, USP8 (Homo sapiens, UniProt P40818); experiment: USP8 activity assay (Ub-AMC); type: biochemical; details: 400 nM Ub-AMC, 630 pM enzyme, pH8.8, 30 min pre-incubation, 60 min at 37° C., sigmoidal fit; read-out: USP8 (inhibition of cysteine protease activity)
T1 construct: His tag (from vector pFastBac-HT) (N); made in house; host or cells: insect cells (Sf9 or High Five), baculovirus
T1 sequence (P40818 1-1118): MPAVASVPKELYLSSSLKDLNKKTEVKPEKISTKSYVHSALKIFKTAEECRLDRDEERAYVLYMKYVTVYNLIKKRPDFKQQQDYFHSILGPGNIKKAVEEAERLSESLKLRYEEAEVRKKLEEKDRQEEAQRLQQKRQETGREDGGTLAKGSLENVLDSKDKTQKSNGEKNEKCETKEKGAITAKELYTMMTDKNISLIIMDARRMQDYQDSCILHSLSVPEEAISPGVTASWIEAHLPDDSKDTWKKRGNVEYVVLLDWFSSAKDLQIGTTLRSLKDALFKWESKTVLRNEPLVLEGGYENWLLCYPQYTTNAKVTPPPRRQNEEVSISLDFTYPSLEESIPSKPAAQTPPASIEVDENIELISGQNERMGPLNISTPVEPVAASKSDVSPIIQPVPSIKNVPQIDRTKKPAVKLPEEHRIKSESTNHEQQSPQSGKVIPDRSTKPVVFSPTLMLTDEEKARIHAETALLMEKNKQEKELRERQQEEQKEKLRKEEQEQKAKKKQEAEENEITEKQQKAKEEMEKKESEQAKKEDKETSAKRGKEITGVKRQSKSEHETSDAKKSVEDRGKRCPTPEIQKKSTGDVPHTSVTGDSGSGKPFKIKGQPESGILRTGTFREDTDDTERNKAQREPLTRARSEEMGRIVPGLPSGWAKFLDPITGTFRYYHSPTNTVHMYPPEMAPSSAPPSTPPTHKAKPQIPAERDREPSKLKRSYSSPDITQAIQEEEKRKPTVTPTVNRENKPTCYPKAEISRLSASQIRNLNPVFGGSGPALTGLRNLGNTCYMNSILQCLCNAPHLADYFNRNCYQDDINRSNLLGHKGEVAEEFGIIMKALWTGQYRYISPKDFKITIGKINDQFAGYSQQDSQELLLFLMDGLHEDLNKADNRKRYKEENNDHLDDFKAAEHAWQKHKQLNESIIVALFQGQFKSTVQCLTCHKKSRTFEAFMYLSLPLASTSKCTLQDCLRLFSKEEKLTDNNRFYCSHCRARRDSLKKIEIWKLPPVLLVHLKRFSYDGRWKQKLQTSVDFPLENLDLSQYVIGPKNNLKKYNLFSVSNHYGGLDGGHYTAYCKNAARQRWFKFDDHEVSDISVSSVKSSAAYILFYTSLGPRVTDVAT
Source text: The cDNA encoding USP8 was obtained by PCR amplification from placenta mRNA. USP8 cDNA was subcloned by PCR into a baculovirus expression vector (pFastBac-HT; Invitrogen). A cDNA encoding a mutated USP8 was generated by mutagenic PCR. The corresponding protein encodes a cysteine to alanine substitution at residue 786. The sequences were ascertained by sequencing of the entire open reading frame. Bacmids encoding […] were generated following. DH10bac transposition. The corresponding bacmids were transfected into insect cells (Sf9). Viruses were recovered from culture supernatant and amplified twice. Insect cells (Sf9 or High Five; Invitrogen) were infected for 72 hours. Total cell lysates were harvested and lyzed in lysis buffer (Tris HCl 50 mM pH7.6; 0.75% NP40; 500 mM NaCl; 10% glycerol; 1 mM DTT; 10 mM imidazole; Protease Inhibitor Cocktail; AEBSF 20 μg.ml^−1; Aprotinin 10 μg.ml^−1). Proteins were affinity purified on metal affinity resins (Talon Metal affinity resin; BD Biosciences). Bound materials were extensively washed in wash buffer (50 mM Sodium Phosphate pH 7.0; 300 mM NaCl; 10 mM imidazole; 0.5% Triton X-100; 10% glycerol) and eluted from the resin in 250 mM imidazole-containing wash buffer. Proteins were dialyzed in dialysis buffer (Tris HCl pH 7.6 20 mM; NaCl 200 mM; DTT 1 mM; EDTA 1 mM; 10% Glycerol). Proteins purifications were analyzed on 4-12% NuPAGE (Invitrogen).
USP8 was diluted in USP buffer (50 mM Tris HCl; 0.5 mM EDTA; 5 mM DTT; 0.01% Triton X-100; Bovine Serum Albumin 0.05 mg.ml^−1 pH8.8). Compounds stocks (100 mM) were stored at −20° C. in DMSO.
Reactions were performed as duplicates in Black LJL 96 well plates (HE microplates; Molecular Devices; 20 μl final reaction volume). The substrate concentration for USP8 was 400 nM Ub-AMC (Boston Biochem). The concentrations of the enzyme (USP8) in specificity assays was 630 pM. The concentrations were determined in order to perform specificity assays under initial velocities at fixed substrate concentration. Compounds were pre-incubated with enzymes for 30 minutes at 25° C. Reactions were initiated by addition of substrate to the plates containing the enzymes (+/−compounds) diluted in assay buffer. Reactions were incubated for 60 minutes at 37° C. Reactions were stopped by adding acetic acid (100 mM final). Readings were performed on a Pherastar Fluorescent Reader (BMG). λ Emission 380 nm; λ Excitation=460 nm. Data (mean values +/−standard deviation) were analyzed as % of control (no compound) and plotted as percentage versus the Log of the compound concentration using GraphPad (Prism). Data were fitted to a sigmoidal model (variable slope).

[2] = target: T2, Uch-L3 (Homo sapiens, UniProt P15374); experiment: UCH-L3 activity assay (Ub-AMC); type: biochemical; details: 400 nM Ub-AMC, 13 pM enzyme, 30 min pre-incubation, 60 min at 37° C., sigmoidal fit; read-out: Uch-L3 (inhibition of cysteine protease activity)
T2 sequence (P15374 1-230): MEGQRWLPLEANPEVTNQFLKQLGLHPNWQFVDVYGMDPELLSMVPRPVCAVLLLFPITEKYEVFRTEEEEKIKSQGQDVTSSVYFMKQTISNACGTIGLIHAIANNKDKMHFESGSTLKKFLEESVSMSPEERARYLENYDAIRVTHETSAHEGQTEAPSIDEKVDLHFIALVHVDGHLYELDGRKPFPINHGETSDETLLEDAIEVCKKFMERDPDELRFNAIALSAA
Method: Uch-L3 was diluted in USP buffer (50 mM Tris HCl; 0.5 mM EDTA; 5 mM DTT; 0.01% Triton X-100; Bovine Serum Albumin 0.05 mg.ml^−1 pH7.6). Compounds stocks (100 mM) were stored at −20° C. in DMSO. Compounds were tested at the following final concentrations: 100 μM; 33.3 μM; 11.1 μM; 3.7 μM; 1.23 μM; 412 nM; 137 nM; 45.7 nM, 15.2 nM; 5 nM.
Reactions were performed as duplicates in Black LJL 96 well plates (HE microplates; Molecular Devices; 20 μl final reaction volume). The substrate concentration for Uch-L3 was 400 nM Ub-AMC (Boston Biochem). The concentration of the enzyme (Uch-L3) in specificity assays was 13 pM. The concentrations were determined in order to perform specificity assays under initial velocities at fixed substrate concentration. Compounds were pre-incubated with enzymes for 30 minutes at 25° C. Reactions were initiated by addition of substrate to the plates containing the enzymes (+/−compounds) diluted in assay buffer.
Reactions were incubated for 60 minutes at 37° C. Reactions were stopped by adding acetic acid (100 mM final). Readings were performed on a Pherastar Fluorescent Reader (BMG). δ Emission 380 nm; 6 Excitation=460 nm. Data (mean values +/−standard deviation) were analyzed as % of control (no compound) and plotted as percentage versus the Log of the compound concentration using GraphPad (Prism). Data were fitted to a sigmoidal model (variable slope).

| IC50 [1] [µM] | IC50 [2] [µM] | SMILES |
| --- | --- | --- |
| 47.7 | 51 | C=CCON=C1c2ccccc2-c2nc3nnc(C)n3nc21 (mixture of isomers) [5c, 1-Methyl-2,3,4,10,10a-pentaaza-cyclopenta[b]fluoren-9-one O-allyl-oxime] |
| 35 | 89 | C=CCON=C1c2ccccc2-c2nc3nnc(CCCC)n3nc21 (mixture of isomers) [5e, 1-Butyl-2,3,4,110,10a-pentaaza-cyclopenta[b]fluoren-9-one O-allyl-oxime] |
